Laboratory results from article PMC10227015, “From a drug repositioning to a structure-based drug design approach to tackle acute lymphoblastic leukemia” (Nature Communications, 2023).
“Also recorded” adds a separate entry of the source. Read-outs that look alike come from different tables or passages of the source. Each block holds one molecule with its values, some of them ahead of it.

Experiments:
CCRF-CEM cell line = test: CCRF-CEM proliferation, compound alone (nonspecific toxicity); format: cell-based, human
Procedure: The dCK cellular assay was set up to assess the ability to inhibit dCK activity in a cellular model. The model was developed with a T-cell acute lymphoblastic leukemia cell line (CCRF-CEM), because of its high dependence on the SP, thus on dCK activity. Cellular assays were performed to assess the inhibition of cell proliferation under two conditions: (i) in the presence of the compound alone to determine the nonspecific effect on cells, independent of dCK (nonspecific toxicity) and (ii) in the presence of an inhibitor of the DNP to determine the ability of compounds to inhibit dCK and decrease tumor proliferation (activity on dCK). The inhibitor of the DNP chosen for the experiments was thymidine (dT), a physiological inhibitor of ribonucleotide reductase which arrests cell proliferation in phase S. The dTTP produced via thymidine kinase from dT acts as a RNR inhibitor by an allosteric regulation of the R1 subunit. The addition of the nucleoside deoxycytidine (dC) in the medium allows the rescue of cell proliferation by passing only through the salvage pathway, mediated by dCK. dC needs to be added exogenously to mimic physiological concentrations because it is not present in the cell culture medium, on the contrary to mouse model, in which it is naturally present in the serum. Therefore, cell proliferation under these conditions (+dT +dC) is dCK dependent and it is possible to determine the IC50 of dCK inhibitors on the inhibition of cell proliferation. Results are expressed as % cell proliferation relative to the control with DMSO.
The amount of reduced dye formed by metabolically active cells was quantified by its fluorescence measured at 560 nm (excitation) and 590 nm (emission) in a microplate reader (CLARIOstar, BMG Labtech). A blank well without cells was used as a background control. Each experiment was performed at least three times (with technical triplicates) and data are presented as the mean ± SD.

dCK-C3S-S74E [1] = test: Enzymatic assay (PK/LDH coupled), dC phosphorylation by dCK in the presence of UTP; format: biochemical, human; conditions: for effect on dCK enzymatic activity, activation versus inhibition: UTP 1 mM, dC 200 µM; for ENZYMATIC ASSAY (Activation/Inhibition): presence of UTP
Summary of the method: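 Activation versus inhibition was judged with 1 mM UTP, 200 µM dC and 2 μM dCK-C3S-S74E, using pyruvate kinase/lactate dehydrogenase coupling that tracks NADH fluorescence decrease at 460 nm. Buffer was HEPES pH 7.5 with MgCl2, KCl and DTT. Rates came from linear slopes, expressed relative to compound-free control.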

dCK-C3S-S74E [2] = test: Thermal shift assay (TSA); conditions: for ΔTm, dCK thermal stabilization (TSA): 5 μM protein, 50 μM compound; for THERMAL SHIFT ASSAY +Tm (°): mean ± SD
Excerpt: BL21 pRIL Escherichia coli cells were transformed with dCK-plasmids (dCK-C4S-S74E (for crystallization assays) and dCK-C3S-S74E (for TSA, enzymatic and ITC assays)). […] Protein dCK-C3S-S74E used for other assays contained only three mutated cysteines. The S74E mutation mimics the phosphorylated state of this serine, which favors the open conformation of the enzyme, making it competent for nucleoside binding[45] to evaluate the binding affinity with compounds.
For binding assays (TSA, ITC and crystallography) cells were re-suspended in 50 mM TRIS, pH 8, 500 mM NaCl, 30 mM imidazole and 10% glycerol buffer and one EDTA free anti-protease tablet was added (Roche). After sonication and centrifugation (30,000 × g), the supernatant was loaded on a 5 ml HisTrap FF column (GE healthcare) pre-equilibrated with resuspension buffer. Protein was then eluted by resuspension buffer containing 500 mM imidazole. Protein eluted fractions were mixed and concentrated. Protein was further purified by size exclusion chromatography (superdex 200 16/600, GE healthcare) in 20 mM HEPES, pH 7.5, and 200 mM NaCl before concentration to 30 mg/ml and storage at −80 °C.
Thermal shift assay (TSA) experiments were performed in 384-well PCR white plates in the assay buffer containing 20 mM HEPES, pH 7.5 and 200 mM NaCl. […] Plates were centrifuged at 200 × g for 2 min at 4 °C. […] Raw fluorescence data were treated, and the melting temperatures (Tm) were calculated using CFX Manager 3.1 software (Bio-Rad). ΔTm represents the difference in Tm between the protein in the presence of compound and the protein alone (both at 2% DMSO). Each experiment was performed at least twice (with technical triplicates) and data are presented as the mean ± SD.

[3] = Acute in vivo toxicity, unique IP injection; conditions: male, mouse, in vivo; Swiss mice, IP, unique injection; read-out: Maximum tolerated dose
Procedure: (§1) To evaluate the in vivo toxicity selected compounds were injected by intraperitoneal (IP) route to 7 weeks-old male Swiss mice (n = 2) at 10, 20, 40, 50, or 80 mg/kg by unique injection. […] Compounds were administered in their hydrochloride salt forms. Mice were then observed closely for the next one hour, then every hour for 8 h. Observations were continued for 72 h for signs of pain or toxicity such as change in the behavior and in the activity in the cage (decreased locomotion) or change in the appearance (curved back, eyes half-closed, bristle hair, hips hollowed out). In vivo toxicity of compound OR0642 at 40 and 80 mg/kg was also assessed in the NOD-SCID-IL2Rγc null (NSG) mice model for 2 weeks in the presence and absence of dT to confirm the safety of the compound. […]. Blood samples were collected and spun at 10,000 × g prior to collecting the plasma supernatants. All plasma samples were frozen at −80 °C before sample processing. 13 μl of each plasma sample was mixed with 33 μl of acetonitrile to precipitate proteins and extract the compound. Samples were vortexed for 5 min and then placed in an ultrasonic bath for 1 min. The precipitated proteins were sedimented by centrifugation (15,000 × g, 5 min, 16 °C). Supernatants were transferred to a microplate to be analyzed by LC–MS/MS. All samples were analyzed with a UHPLC coupled to a Shimadzu LC-MS 8030 triple quadrupole. The solutions of a standard range, prepared with plasma from untreated mice, were analyzed in the same series of injections.

[4] = Plasma pharmacokinetics after IP administration; format: in vivo; conditions: male, Swiss, mouse, mice
Procedure: as §1

Chain of dCK-C3S-S74E (P27707 whole entry S74E, form open): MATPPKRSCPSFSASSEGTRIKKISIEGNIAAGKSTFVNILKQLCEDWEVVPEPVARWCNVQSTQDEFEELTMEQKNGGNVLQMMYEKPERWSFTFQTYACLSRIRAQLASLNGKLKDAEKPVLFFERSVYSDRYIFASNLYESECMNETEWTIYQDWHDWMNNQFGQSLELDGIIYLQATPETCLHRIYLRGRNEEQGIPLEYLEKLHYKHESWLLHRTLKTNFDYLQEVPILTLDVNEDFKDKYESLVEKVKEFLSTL

SMILES: CCCN(c1nc(-c2nc(N)cc(N)n2)cs1)c1cc(-c2ccc(S(=O)(=O)N3CCN(C)CC3)cc2C(F)(F)F)ccc1C [OR0642]
MTD at 72 h [3]: > 80 mg/kg | nonspecific cellular toxicity (CCRF-CEM cell line; CCRF-CEM, absence of dT + dC): lack of non-specific toxicity; also recorded: absence of nonspecific toxicity | effect on dCK enzymatic activity, activation versus inhibition (dCK-C3S-S74E [1]): inhibitor even at concentrations in the nanomolar range | ENZYMATIC ASSAY (Activation/Inhibition) (dCK-C3S-S74E [1]): I | Cmax ([4]; dose 20 mg/Kg): 800 ± 200 nM | Tmax ([4]; dose 20 mg/Kg): 2 h | half-life ([4]; dose 20 mg/Kg, read-out: T ½ (converted)): 7 ± 3 h | Cmax ([4]; dose 40 mg/Kg): 4100 ± 1500 nM | Tmax ([4]; dose 40 mg/Kg): 5 h | half-life ([4]; dose 40 mg/Kg, read-out: T ½ (converted)): > 8 h | half-life ([4]; read-out: half-life): > 7 h | ΔTm, dCK thermal stabilization (TSA) (dCK-C3S-S74E [2]): 22.2 °C | ΔTm (º) (TSA) (dCK-C3S-S74E [2]; Figure 2a, mean): 22.23 º | Thermal Shift Assay Mean (ΔTm (º)) (dCK-C3S-S74E [2]; Figure 2b): 22.2 º | improved dCK thermal stability (dCK-C3S-S74E [2]; compared to dCKi1): 7.9 °C | improved dCK thermal stability (dCK-C3S-S74E [2]; compared to masitinib): 15 °C | THERMAL SHIFT ASSAY +Tm (°) (dCK-C3S-S74E [2]): 22.2 ± 0.9 °

SMILES: Cc1ccc(-c2ccc(CCN3CCN(C)CC3)cc2)cc1Nc1nc(-c2nccc(N)n2)cs1 [OR0325]
ENZYMATIC ASSAY (Activation/Inhibition) (dCK-C3S-S74E [1]): A/I | ΔTm, dCK thermal stabilization (TSA) (dCK-C3S-S74E [2]): 17.8 °C | Thermal Shift Assay Mean (ΔTm (º)) (dCK-C3S-S74E [2]; Figure 2b): 17.8 º | THERMAL SHIFT ASSAY +Tm (°) (dCK-C3S-S74E [2]): 17.9 ± 0.3 °

SMILES: CCCN(c1nc(-c2nccc(N)n2)cs1)c1cc(-c2ccc(CCN3CCN(C)CC3)cc2)ccc1C [OR0345]
effect on dCK enzymatic activity, activation versus inhibition (dCK-C3S-S74E [1]): total loss of dCK enzymatic activation | ENZYMATIC ASSAY (Activation/Inhibition) (dCK-C3S-S74E [1]): I | ΔTm, dCK thermal stabilization (TSA) (dCK-C3S-S74E [2]): 18.4 °C | Thermal Shift Assay Mean (ΔTm (º)) (dCK-C3S-S74E [2]; Figure 2b): 18.4 º | THERMAL SHIFT ASSAY +Tm (°) (dCK-C3S-S74E [2]): 18.4 ± 0.2 °

The next lines start with results.

Enzymatic activity (UTP) Mean (% activity) (dCK-C3S-S74E [1]; 0.078 µM): 104.73% | Enzymatic activity (UTP) Mean (% activity) (dCK-C3S-S74E [1]; 0.156 µM): 119.43% | Enzymatic activity (UTP) Mean (% activity) (dCK-C3S-S74E [1]; 0.31 µM): 140.85% | Enzymatic activity (UTP) Mean (% activity) (dCK-C3S-S74E [1]; 0.625 µM): 200.29% | Enzymatic activity (UTP) Mean (% activity) (dCK-C3S-S74E [1]; 1.25 µM): 208.47% | Enzymatic activity (UTP) Mean (% activity) (dCK-C3S-S74E [1]; 2.5 µM): 211.72% | Enzymatic activity (UTP) Mean (% activity) (dCK-C3S-S74E [1]; 5 µM): 205.54% | Enzymatic activity (UTP) Mean (% activity) (dCK-C3S-S74E [1]; 10 µM): 84.19% | Enzymatic activity (UTP) Mean (% activity) (dCK-C3S-S74E [1]; 20 µM): 45.49% | Enzymatic activity (UTP) Mean (% activity) (dCK-C3S-S74E [1]; 40 µM): 12.08% | Enzymatic activity (UTP) Mean (% activity) (dCK-C3S-S74E [1]; 80 µM): 5.40% | Enzymatic activity (UTP) Mean (% activity) (dCK-C3S-S74E [1]; 160 µM): 0.67% | effect on dCK enzymatic activity, activation versus inhibition (dCK-C3S-S74E [1]): shifted from activators to inhibitors | ENZYMATIC ASSAY (Activation/Inhibition) (dCK-C3S-S74E [1]): A/I | ΔTm, dCK thermal stabilization (TSA) (dCK-C3S-S74E [2]): 14.3 °C | Thermal Shift Assay Mean (ΔTm (º)) (dCK-C3S-S74E [2]; Figure 1b): 14.3 º | THERMAL SHIFT ASSAY +Tm (°) (dCK-C3S-S74E [2]): 14.3 ± 0.4 °
SMILES: Cc1ccc(NC(=O)c2ccc(CN3CCN(C)CC3)cc2)cc1Nc1nc(-c2nccc(N)n2)cs1 [dCKi1]
Cell proliferation of the CCRF-CEM cell line Mean (% prolif) (CCRF-CEM cell line; compound 10 µM alone, 72 h): 76.3%

effect on dCK enzymatic activity, activation versus inhibition (dCK-C3S-S74E [1]): only exhibited enzymatic inhibition | ENZYMATIC ASSAY (Activation/Inhibition) (dCK-C3S-S74E [1]): I | ΔTm, dCK thermal stabilization (TSA) (dCK-C3S-S74E [2]): 20 °C | Thermal Shift Assay Mean (ΔTm (º)) (dCK-C3S-S74E [2]; Figure 2b): 20.0 º | THERMAL SHIFT ASSAY +Tm (°) (dCK-C3S-S74E [2]): 20.0 ± 0.6 °
SMILES: CCCN(c1nc(-c2nc(N)cc(N)n2)cs1)c1cc(-c2ccc(CCN3CCN(C)CC3)cc2)ccc1C [OR0600]
